Reference: publication PMC9197942 (Clinical cancer research : an official journal of the …, 2022)
Read-outs that look alike come from different tables or passages of the source.

Assays:
mTOR pathway = settings: in vitro; cited from earlier work
[1] = Clinical pharmacokinetics of belumosudil; format: in vivo, human
ROCK2 = ROCK2 (Homo sapiens, UniProt O75116); experiment: ROCK2 inhibition; format: biochemical
animals = experiment: Animal toxicology studies; format: in vivo
[2] = tested on: adult patients with cGVHD; experiment: Clinical safety, Studies KD025-208 and KD025-213, belumosudil 200 mg daily; format: in vivo, human
dogs = experiment: Safety pharmacology studies in dogs; format: in vivo, dog
CYP3A4 = CYP3A4 (Homo sapiens, UniProt P08684); experiment: In vitro metabolism; format: in vitro ADME
CYP3A4, sequence (P08684 whole entry): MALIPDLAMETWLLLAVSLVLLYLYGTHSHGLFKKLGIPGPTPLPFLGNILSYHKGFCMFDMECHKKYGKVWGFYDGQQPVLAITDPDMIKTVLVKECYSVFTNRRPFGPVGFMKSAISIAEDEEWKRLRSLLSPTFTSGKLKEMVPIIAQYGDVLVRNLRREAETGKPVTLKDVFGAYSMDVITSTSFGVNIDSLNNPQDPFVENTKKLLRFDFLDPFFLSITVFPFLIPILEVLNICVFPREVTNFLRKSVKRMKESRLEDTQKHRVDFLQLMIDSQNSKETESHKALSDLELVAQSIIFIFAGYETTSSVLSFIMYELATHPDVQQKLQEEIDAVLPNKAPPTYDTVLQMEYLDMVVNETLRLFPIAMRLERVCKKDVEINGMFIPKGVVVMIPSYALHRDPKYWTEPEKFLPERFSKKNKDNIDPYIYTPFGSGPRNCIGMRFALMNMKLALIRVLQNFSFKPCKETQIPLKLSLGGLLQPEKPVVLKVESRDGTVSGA

[3] = molecular target: human ether-à-go-go-related gene (hERG) current (Homo sapiens, UniProt Q12809); experiment: hERG current in vitro; format: biochemical
human ether-à-go-go-related gene (hERG) current, sequence (Q12809 whole entry): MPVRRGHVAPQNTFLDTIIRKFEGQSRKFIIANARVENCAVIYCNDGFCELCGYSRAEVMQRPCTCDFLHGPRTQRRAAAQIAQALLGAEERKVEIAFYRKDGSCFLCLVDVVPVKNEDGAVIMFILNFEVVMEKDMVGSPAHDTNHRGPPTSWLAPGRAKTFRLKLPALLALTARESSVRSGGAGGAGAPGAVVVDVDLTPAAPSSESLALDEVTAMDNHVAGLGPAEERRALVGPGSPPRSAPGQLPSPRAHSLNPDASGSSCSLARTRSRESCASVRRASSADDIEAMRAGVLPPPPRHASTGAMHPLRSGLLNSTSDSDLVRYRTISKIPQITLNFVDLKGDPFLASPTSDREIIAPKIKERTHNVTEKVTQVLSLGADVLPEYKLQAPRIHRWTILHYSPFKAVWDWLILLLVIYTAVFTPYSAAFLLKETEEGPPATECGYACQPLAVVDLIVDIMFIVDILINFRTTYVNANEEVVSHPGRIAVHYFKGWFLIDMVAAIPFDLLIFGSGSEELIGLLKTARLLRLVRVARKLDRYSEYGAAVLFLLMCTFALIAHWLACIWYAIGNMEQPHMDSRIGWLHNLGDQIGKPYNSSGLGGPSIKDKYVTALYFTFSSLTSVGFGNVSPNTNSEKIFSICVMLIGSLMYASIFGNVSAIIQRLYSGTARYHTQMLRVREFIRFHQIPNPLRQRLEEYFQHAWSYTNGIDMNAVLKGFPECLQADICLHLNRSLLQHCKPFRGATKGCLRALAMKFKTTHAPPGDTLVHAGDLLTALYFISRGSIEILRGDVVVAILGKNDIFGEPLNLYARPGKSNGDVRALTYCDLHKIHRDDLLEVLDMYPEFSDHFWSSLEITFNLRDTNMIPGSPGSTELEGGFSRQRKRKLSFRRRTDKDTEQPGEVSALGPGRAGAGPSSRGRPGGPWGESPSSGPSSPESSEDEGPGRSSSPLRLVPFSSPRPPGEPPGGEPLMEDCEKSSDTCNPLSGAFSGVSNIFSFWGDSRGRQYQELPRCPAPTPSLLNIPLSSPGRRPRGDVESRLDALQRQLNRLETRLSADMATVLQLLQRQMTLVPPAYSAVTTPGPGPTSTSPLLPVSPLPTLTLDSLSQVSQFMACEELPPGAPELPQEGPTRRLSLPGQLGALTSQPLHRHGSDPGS

STAT3 = settings: ex-vivo or in vitro; cited from earlier work
Photoabsorbance in vitro = format: physicochemical
OATP1B1 = settings: cited from earlier work
ROCK1 isoform = settings: in vitro, compared with ROCK2; cited from earlier work
BCRP = settings: cited from earlier work
CYP3A = settings: cited from earlier work
[4] = Reproductive toxicity studies; settings: in vivo
patients with cGVHD [5] = experiment: Pooled exposure-response analyses; set-up: species or system human; settings: 186 patients
p-glycoprotein = settings: cited from earlier work
CYP2C19 = settings: cited from earlier work
CYP2D6 = CYP2D6 (Homo sapiens, UniProt P10635); settings: cited from earlier work
CYP2D6, sequence (P10635 whole entry): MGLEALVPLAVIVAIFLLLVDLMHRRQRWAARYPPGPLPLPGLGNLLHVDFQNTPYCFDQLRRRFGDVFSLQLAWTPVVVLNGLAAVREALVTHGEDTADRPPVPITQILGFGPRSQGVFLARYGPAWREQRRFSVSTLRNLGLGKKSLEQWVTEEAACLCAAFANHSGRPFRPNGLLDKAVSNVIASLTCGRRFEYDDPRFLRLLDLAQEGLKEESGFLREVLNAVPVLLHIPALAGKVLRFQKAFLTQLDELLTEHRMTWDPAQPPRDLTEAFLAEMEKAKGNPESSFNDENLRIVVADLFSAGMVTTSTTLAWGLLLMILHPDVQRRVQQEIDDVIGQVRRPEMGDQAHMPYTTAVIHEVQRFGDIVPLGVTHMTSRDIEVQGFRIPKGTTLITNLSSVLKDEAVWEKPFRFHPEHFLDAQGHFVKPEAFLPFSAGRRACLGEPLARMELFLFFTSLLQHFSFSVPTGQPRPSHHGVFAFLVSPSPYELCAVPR

CYP1A2 = settings: cited from earlier work
[6] = tested on: patients with chronic GVHD; experiment: Study KD025-213 efficacy, belumosudil 200 mg daily cohort; format: in vivo, human; settings: for Median time from first response to death or new systemic therapy: 49 responders; for Overall response rate (ORR) through Cycle 7 Day 1 (CR or PR): N=65, 2014 NIH consensus criteria, FDA adjudicated; for Patients with 7-point or greater decrease in Lee Symptom Scale summary score through Cycle 7 Day 1: N=65, exploratory; for Median duration of response: responders
[7] = tested on: human peripheral blood mononuclear cells; settings: CD3-CD28 stimulation of human PBMC, ex-vivo or in vitro; cited from earlier work
MRTF = settings: ex-vivo or in vitro; cited from earlier work
Tissue distribution = settings: in vivo
UGT1A1 [8] = molecular target: T1, UGT1A1 (Homo sapiens, UniProt P22309); experiment: UGT1A1 inhibition; format: in vitro ADME; settings: at concentrations that could be achieved clinically
T1 sequence (P22309 26-533): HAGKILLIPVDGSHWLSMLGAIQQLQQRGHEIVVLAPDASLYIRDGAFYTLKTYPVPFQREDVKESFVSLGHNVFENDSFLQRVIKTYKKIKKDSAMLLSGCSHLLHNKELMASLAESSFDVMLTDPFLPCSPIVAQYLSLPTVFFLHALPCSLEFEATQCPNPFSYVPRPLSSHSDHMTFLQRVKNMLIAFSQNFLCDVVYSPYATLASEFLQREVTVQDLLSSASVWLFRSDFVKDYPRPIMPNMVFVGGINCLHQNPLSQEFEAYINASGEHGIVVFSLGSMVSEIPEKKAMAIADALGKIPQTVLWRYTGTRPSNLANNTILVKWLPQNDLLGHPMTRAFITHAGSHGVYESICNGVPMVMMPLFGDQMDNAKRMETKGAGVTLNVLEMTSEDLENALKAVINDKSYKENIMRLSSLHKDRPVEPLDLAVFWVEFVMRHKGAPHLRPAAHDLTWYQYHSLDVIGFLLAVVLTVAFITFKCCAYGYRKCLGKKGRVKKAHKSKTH

CYP2C8 = CYP2C8 (Homo sapiens, UniProt P10632); experiment: In vitro metabolism; format: in vitro ADME
CYP2C8, sequence (P10632 whole entry): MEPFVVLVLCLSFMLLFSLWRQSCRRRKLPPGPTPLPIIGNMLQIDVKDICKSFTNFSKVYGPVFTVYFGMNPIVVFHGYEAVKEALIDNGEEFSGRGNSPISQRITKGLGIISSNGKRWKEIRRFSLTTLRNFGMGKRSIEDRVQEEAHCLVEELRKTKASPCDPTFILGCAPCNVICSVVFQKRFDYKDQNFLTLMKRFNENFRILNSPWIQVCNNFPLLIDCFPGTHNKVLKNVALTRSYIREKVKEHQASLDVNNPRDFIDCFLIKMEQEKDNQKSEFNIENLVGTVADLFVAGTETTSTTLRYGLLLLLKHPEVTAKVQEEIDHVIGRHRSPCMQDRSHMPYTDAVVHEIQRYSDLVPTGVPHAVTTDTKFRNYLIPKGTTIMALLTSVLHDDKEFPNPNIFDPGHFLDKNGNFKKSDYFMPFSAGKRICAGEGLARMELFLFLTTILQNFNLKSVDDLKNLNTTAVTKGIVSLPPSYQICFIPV

cGVHD mouse models = settings: cited from earlier work
UGT1A1 [9] = molecular target: T1, UGT1A1; settings: cited from earlier work
[10] = Population pharmacokinetics; set-up: species or system human; settings: in comparison to healthy volunteers
patients with cGVHD [11] = experiment: Study KD025-208 dose-escalation trial; format: in vivo, human; settings: 200 mg daily, 200 mg twice daily and 400 mg daily; 54 patients failing 1-3 prior lines
[12] = cited from earlier work
[13] = N=65, through Cycle 7 Day 1, listed as belumosudil
[14] = with proton pump inhibitor rabeprazole
[15] = with strong CYP3A inducer rifampicin

ROCK2, sequence (O75116 whole entry): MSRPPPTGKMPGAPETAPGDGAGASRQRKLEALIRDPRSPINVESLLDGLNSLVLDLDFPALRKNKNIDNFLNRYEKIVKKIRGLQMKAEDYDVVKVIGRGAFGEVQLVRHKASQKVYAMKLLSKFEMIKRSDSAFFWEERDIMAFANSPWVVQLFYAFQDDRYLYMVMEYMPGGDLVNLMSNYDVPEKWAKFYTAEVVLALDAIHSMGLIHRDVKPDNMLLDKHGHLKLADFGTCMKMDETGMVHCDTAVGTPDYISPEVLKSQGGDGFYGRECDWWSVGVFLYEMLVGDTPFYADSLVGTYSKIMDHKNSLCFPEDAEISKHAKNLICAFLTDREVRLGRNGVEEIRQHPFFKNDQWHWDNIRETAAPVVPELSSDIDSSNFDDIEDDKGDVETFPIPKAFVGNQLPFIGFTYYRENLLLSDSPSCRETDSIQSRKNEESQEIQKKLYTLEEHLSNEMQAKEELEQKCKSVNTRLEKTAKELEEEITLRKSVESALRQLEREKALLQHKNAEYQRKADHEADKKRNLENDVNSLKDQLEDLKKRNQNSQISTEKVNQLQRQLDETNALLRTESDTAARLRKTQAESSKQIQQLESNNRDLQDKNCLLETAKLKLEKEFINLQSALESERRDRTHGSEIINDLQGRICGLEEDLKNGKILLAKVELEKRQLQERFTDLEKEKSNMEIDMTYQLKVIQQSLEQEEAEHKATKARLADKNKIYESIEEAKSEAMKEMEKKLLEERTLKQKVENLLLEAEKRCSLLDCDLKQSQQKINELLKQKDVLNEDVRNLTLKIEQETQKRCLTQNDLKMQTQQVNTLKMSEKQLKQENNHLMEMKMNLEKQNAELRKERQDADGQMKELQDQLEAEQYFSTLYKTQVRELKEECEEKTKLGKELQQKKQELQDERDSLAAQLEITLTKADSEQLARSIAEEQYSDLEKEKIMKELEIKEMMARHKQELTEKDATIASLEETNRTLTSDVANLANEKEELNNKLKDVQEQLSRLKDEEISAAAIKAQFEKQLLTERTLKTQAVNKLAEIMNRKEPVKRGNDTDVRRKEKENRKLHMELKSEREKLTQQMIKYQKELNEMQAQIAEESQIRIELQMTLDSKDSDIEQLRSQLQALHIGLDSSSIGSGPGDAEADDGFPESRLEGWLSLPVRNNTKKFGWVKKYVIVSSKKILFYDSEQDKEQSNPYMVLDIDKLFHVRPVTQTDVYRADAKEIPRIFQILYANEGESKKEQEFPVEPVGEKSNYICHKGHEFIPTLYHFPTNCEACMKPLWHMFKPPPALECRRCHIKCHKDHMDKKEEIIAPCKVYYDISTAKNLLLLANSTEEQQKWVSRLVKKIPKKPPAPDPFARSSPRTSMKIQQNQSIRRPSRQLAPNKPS

Structure (SMILES): CC(C)NC(=O)COc1cccc(-c2nc(Nc3ccc4[nH]ncc4c3)c3ccccc3n2)c1 [Belumosudil]
- mTOR pathway inhibition (mTOR pathway): inhibited
- Delay of Tmax with food ([1]; administration with food): 0.5 h
- Increase of AUC with food ([1]; administration with food): 2 times
- Increase of Cmax with food ([1]; administration with food): 2.2 times
- Excretion in feces unchanged ([1]; human, in vivo): 30%
- Tmax ([1]; human, in vivo, oral): 1.26 h
- ROCK2 inhibition (ROCK2): inhibitor
- Target organs of toxicity (animals): toxicities were observed in the gastrointestinal tract, liver, kidney, hemolymphoid system, and reproductive system
- Incidence of Viral infection ([2]; Grades ≥ 3, 200 mg daily, n=83): 4%
- Adverse reactions leading to dose interruption ([2]; human, in vivo): 29%
- Dose interruption due to diarrhea ([2]; human, in vivo): 4%
- Dose interruption due to infections ([2]; human, in vivo): 11%
- Effect on blood pressure (dogs): lowering of the blood pressure
- Metabolism by CYP3A4 (CYP3A4): metabolized primarily
- hERG current [3]: blocked
- STAT3 phosphorylation and transcriptional activity (STAT3): inhibited
- Photoabsorbance (Photoabsorbance in vitro): observed
- OATP1B1 inhibition (OATP1B1): inhibit
- ROCK1 isoform inhibition (ROCK1 isoform): with less potency
- BCRP inhibition (BCRP): inhibit
- Effect on CYP3A (CYP3A): little effect
- Embryo-fetal toxicity [4]: embryo-fetal toxicity
- Male fertility [4]: impaired male fertility
- Relationship of response with exposure (patients with cGVHD [5]): no relationship
- p-glycoprotein inhibition (p-glycoprotein): inhibit
- CYP2C19 inhibition (CYP2C19): inhibit
- CYP2D6 inhibition (CYP2D6): inhibit
- CYP1A2 inhibition (CYP1A2): inhibit
- Median time from first response to death or new systemic therapy [6]: Not estimable
- Median time from first response to death or new systemic therapy ([6]; listed as belumosudil): not reached
- Overall response rate (ORR) through Cycle 7 Day 1 (CR or PR) [6]: 49 (75%) (63% - 85%)
- Overall response rate (ORR) through Cycle 7 Day 1 (CR or PR) ([6]; listed as belumosudil): 75%
- Patients with 7-point or greater decrease in Lee Symptom Scale summary score through Cycle 7 Day 1 [6]: (52%) (40% - 65%)
- Patients with 7-point or greater decrease in Lee Symptom Scale summary score through Cycle 7 Day 1 ([6]; listed as belumosudil): 52%
- Complete Response (CR) ([6]; N=65, through Cycle 7 Day 1): 4 (6%)
- Partial Response (PR) ([6]; N=65, through Cycle 7 Day 1): 45 (69%)
- Complete Response (CR) [6, 13]: 6%
- Partial Response (PR) [6, 13]: 69%
- Median duration of response [6]: 1.9 months (1.2-2.9 months)
- Median duration of response ([6]; listed as belumosudil): 1.9 months
- Secretion of IL-21 and IL-17 [7]: inhibited
- MRTF-mediated gene expression (MRTF): inhibited
- Tissue distribution (Tissue distribution): distributed to photosensitive areas such as skin and uveal tract
- UGT1A1 inhibition (UGT1A1 [8]): inhibited
- Metabolism by CYP2C8 (CYP2C8): to a lesser extent
- cGVHD-related clinical and histological abnormality scores in the lung and skin (cGVHD mouse models): improvement
- UGT1A1 inhibition (UGT1A1 [9]): inhibit
- Effect of a diagnosis of GVHD on clearance [10]: decreased clearance
- Activity in cGVHD (patients with cGVHD [11]): appeared to be active
- Reduction of belumosudil Cmax [12, 14]: up to 87%
- Reduction of belumosudil overall exposure [12, 14]: up to 80%
- Reduction of belumosudil Cmax [12, 15]: approximately 60%
- Reduction of belumosudil overall exposure [12, 15]: approximately 72%

Structure (SMILES): NC(=O)COc1cccc(-c2nc(Nc3ccc4[nH]ncc4c3)c3ccccc3n2)c1 [KD025m1]
- ROCK2 inhibition (ROCK2): inhibit

Structure (SMILES): O=C(O)COc1cccc(-c2nc(Nc3ccc4[nH]ncc4c3)c3ccccc3n2)c1 [KD025m2]
- ROCK2 inhibition (ROCK2): inhibit
